Results taken from ChEMBL document CHEMBL1130021 (J Med Chem, 1997).
Structures can show the parent of a compound that is named as a salt.

Tests used:
[1] = tested on: MCF7; experiment: Inhibition of estrogen-induced proliferation in human MCF-7 breast cancer cells; assay type: functional, cell-based
[2] = tested on: Rattus norvegicus; experiment: Percent reduction in total serum Cholesterol level at 1.0 mg/kg oral dose; assay type: functional

SMILES	IC50 [1] [nM]	Reduction [2] [%]
Cl.Oc1ccc(-c2sc3cc(O)ccc3c2Oc2ccc(OCCN3CCCCC3)cc2)cc1	0.05	45
Oc1ccc(-c2sc3cc(O)ccc3c2Cc2ccc(OCCN3CCCCC3)cc2)cc1	0.19	
CC/C(=C(\c1ccccc1)c1ccc(OCCN(C)C)cc1)c1ccccc1 [TAMOXIFEN]	481	
O=C(c1ccc(OCCN2CCCCC2)cc1)c1c(-c2ccc(O)cc2)sc2cc(O)ccc12 [RALOXIFENE HYDROCHLORIDE]	0.4	
Oc1ccc(-c2sc3cc(O)ccc3c2Nc2ccc(OCCN3CCCCC3)cc2)cc1	0.1	
C[C@]12CC[C@@H]3c4ccc(O)cc4C[C@@H](CCCCCCCCC[S+]([O-])CCCC(F)(F)C(F)(F)F)[C@H]3[C@@H]1CC[C@@H]2O (stereo partly drawn) [FULVESTRANT]	0.49	
Oc1ccc(-c2sc3cc(O)ccc3c2Sc2ccc(OCCN3CCCCC3)cc2)cc1	0.28	
